According to ChEMBL document CHEMBL1146794, “Novel delta2-isoxazolines as group II phospholipase A2 inhibitors” (Bioorg Med Chem Lett, 2004):
pIC50: −log10 of the molar value.

What was measured:
[1] = Inhibitory activity against group II Phospholipase A2 (PLA2) from Vipera russelli russelli venom; set-up: species or system Daboia russelii russelii
[2] = Compound (2.5 uM) was tested for edema inducing activity of group II PLA2 (1 ug) was determined in mice footpads; format: functional, Daboia russelii russelii

With CCCCc1nc(C2=NOC(CO)C2)c(Cl)[nH]1 (stereo unspecified) as the molecule, how does the pIC50 [1] read?
The pIC50 was 6.82.

With CCCCc1nc(C2=NOC(CC(=O)OC)C2)c(Cl)[nH]1 (stereo unspecified) as the molecule, how does the pIC50 [1] read?
Its pIC50 is 6.68.

With CCCCc1nc(C2=NOC(C(=O)OC)C2)c(Cl)[nH]1 (stereo unspecified) as the molecule, how does the pIC50 [1] read?
Its pIC50 is 6.60.

With CCCCc1nc(C2=NOC(C(=O)Oc3ccccc3)C2)c(Cl)[nH]1 (stereo unspecified) as the molecule, how does the pIC50 [1] read?
The pIC50 was 6.71.

Which Edema ratio [2] does the source give for CCCCc1nc(C2=NOC(C#N)C2)c(Cl)[nH]1 (stereo unspecified) here?
The Edema ratio was 120.

What about the pIC50 [1] of the same molecule?
The pIC50 was 7.02.

With CCCCc1nc(C2=NOC(c3ccccc3)C2)c(Cl)[nH]1 (stereo unspecified) as the molecule, how does the pIC50 [1] read?
Its pIC50 is 6.85.

For CCCCc1nc(C2=NOC(C(=O)OCC)C2)c(Cl)[nH]1 (stereo unspecified), which Edema ratio [2] is on record?
Its Edema ratio is 116.

And the pIC50 [1]?
Its pIC50 is 7.06.

For C[C@H]1[C@H](C)CC[C@]2(C(=O)O)CC[C@]3(C)C(=CC[C@@H]4[C@@]5(C)CC[C@H](O)C(C)(C)[C@@H]5CC[C@]43C)[C@H]12 [URSOLIC ACID], which Edema ratio [2] is on record?
Its Edema ratio is 102.

And the pIC50 [1]?
Its pIC50 is 8.60.
